Measurements taken from PubChem BioAssay AID2060488 (Molecular Pharmacology Branch, DTP, NCI, 2025).

Test system: 966289-007-R4-J1-PDC complex spheroid viability
Assay: Anticancer human tumor 966289-007-R4-J1-PDC patient-derived pancreatic adenocarcinoma cell line growth inhibition [GQUAD]
Settings: for IC50: curve of first compound; for viability, T/C: stronger effect = lower value
In short: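 Tumor cells were grown as complex spheroids with HUVEC endothelial cells and mesenchymal stem cells as stroma. G-quadruplex stabilizers were combined with targeted agents over half-log dilutions from near the clinical Cmax, or from 10 microM.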

[1] = second compound 0.0316 µM, first compound 0.0316 µM
[2] = second compound 0.0316 µM, first compound 0.1 µM
[3] = second compound 0.0316 µM, first compound 0.316 µM
[4] = second compound 0.0316 µM, first compound 1 µM
[5] = second compound 0.0316 µM, first compound 3.16 µM
[6] = second compound 0.0316 µM, first compound 10 µM
[7] = second compound 0.1 µM, first compound 0.0316 µM
[8] = second compound 0.1 µM, first compound 0.1 µM
[9] = second compound 0.1 µM, first compound 0.316 µM
[10] = second compound 0.1 µM, first compound 1 µM
[11] = second compound 0.1 µM, first compound 3.16 µM
[12] = second compound 0.1 µM, first compound 10 µM
[13] = second compound 0.316 µM, first compound 0.0316 µM
[14] = second compound 0.316 µM, first compound 0.1 µM
[15] = second compound 0.316 µM, first compound 0.316 µM
[16] = second compound 0.316 µM, first compound 1 µM
[17] = second compound 0.316 µM, first compound 3.16 µM
[18] = second compound 0.316 µM, first compound 10 µM
[19] = second compound 1 µM, first compound 0.0316 µM
[20] = second compound 1 µM, first compound 0.1 µM
[21] = second compound 1 µM, first compound 0.316 µM
[22] = second compound 1 µM, first compound 1 µM
[23] = second compound 1 µM, first compound 3.16 µM
[24] = second compound 1 µM, first compound 10 µM
[25] = second compound 3.16 µM, first compound 0.0316 µM
[26] = second compound 3.16 µM, first compound 0.1 µM
[27] = second compound 3.16 µM, first compound 0.316 µM
[28] = second compound 3.16 µM, first compound 1 µM
[29] = second compound 3.16 µM, first compound 3.16 µM
[30] = second compound 3.16 µM, first compound 10 µM
[31] = second compound 10 µM, first compound 0.0316 µM
[32] = second compound 10 µM, first compound 0.1 µM
[33] = second compound 10 µM, first compound 0.316 µM
[34] = second compound 10 µM, first compound 1 µM
[35] = second compound 10 µM, first compound 3.16 µM
[36] = second compound 10 µM, first compound 10 µM
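Note: spheroids exposed to the agents for seven days before readout.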
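Throughout, for viability, T/C: percent viability relative to DMSO vehicle control wells taken as 100%.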

CCCS(=O)(=O)Nc1ccc(F)c(C(=O)c2c[nH]c3ncc(-c4ccc(Cl)cc4)cc23)c1F + Cc1cnc(CNC(=O)c2c(=O)c3ccc(N4CCCN(C)CC4)nc3n3c2sc2ccccc23)cn1
IC50 (second compound 0.0316 µM): 6500 nM
IC50 (second compound 0.1 µM): < 31.6 nM
IC50 (second compound 0.316 µM): < 31.6 nM
IC50 (second compound 1 µM): < 31.6 nM
IC50 (second compound 3.16 µM): < 31.6 nM
IC50 (second compound 10 µM): < 31.6 nM
viability, T/C [1]: 117%
viability, T/C [2]: 109%
viability, T/C [3]: 111%
viability, T/C [4]: 99.9%
viability, T/C [5]: 89.8%
viability, T/C [6]: 27.1%
viability, T/C [7]: 34.8%
viability, T/C [8]: 34.5%
viability, T/C [9]: 32%
viability, T/C [10]: 26.7%
viability, T/C [11]: 25.5%
viability, T/C [12]: 16.1%
viability, T/C [13]: 11.4%
viability, T/C [14]: 10.7%
viability, T/C [15]: 8.91%
viability, T/C [16]: 8.64%
viability, T/C [17]: 9.45%
viability, T/C [18]: 8.17%
viability, T/C [19]: 6.02%
viability, T/C [20]: 7.02%
viability, T/C [21]: 5.64%
viability, T/C [22]: 4.34%
viability, T/C [23]: 4.77%
viability, T/C [24]: 3.64%
viability, T/C [25]: 4.08%
viability, T/C [26]: 4.51%
viability, T/C [27]: 4.86%
viability, T/C [28]: 3.92%
viability, T/C [29]: 3.36%
viability, T/C [30]: 1.47%
viability, T/C [31]: 0.08%
viability, T/C [32]: 0.11%
viability, T/C [33]: 0.13%
viability, T/C [34]: 0.26%
viability, T/C [35]: 0.86%
viability, T/C [36]: 0.14%

Nc1ccn(C2OC(CO)C(O)C2(F)F)c(=O)n1 (stereo unspecified) + Cc1cnc(CNC(=O)c2c(=O)c3ccc(N4CCCN(C)CC4)nc3n3c2sc2ccccc23)cn1
IC50 (second compound 0.0316 µM): < 31.6 nM
IC50 (second compound 0.1 µM): < 31.6 nM
IC50 (second compound 0.316 µM): < 31.6 nM
IC50 (second compound 1 µM): < 31.6 nM
IC50 (second compound 3.16 µM): < 31.6 nM
IC50 (second compound 10 µM): < 31.6 nM
viability, T/C [1]: 2.51%
viability, T/C [2]: 0.72%
viability, T/C [3]: 0.68%
viability, T/C [4]: 0.69%
viability, T/C [5]: 0.58%
viability, T/C [6]: 0.61%
viability, T/C [7]: 4.19%
viability, T/C [8]: 0.89%
viability, T/C [9]: 0.87%
viability, T/C [10]: 0.9%
viability, T/C [11]: 0.77%
viability, T/C [12]: 0.88%
viability, T/C [13]: 5.63%
viability, T/C [14]: 1.42%
viability, T/C [15]: 1.15%
viability, T/C [16]: 0.95%
viability, T/C [17]: 1.35%
viability, T/C [18]: 1.02%
viability, T/C [19]: 3.58%
viability, T/C [20]: 1.01%
viability, T/C [21]: 0.82%
viability, T/C [22]: 0.79%
viability, T/C [23]: 0.88%
viability, T/C [24]: 0.78%
viability, T/C [25]: 2.86%
viability, T/C [26]: 0.11%
viability, T/C [27]: 0.1%
viability, T/C [28]: 0.06%
viability, T/C [29]: 0.32%
viability, T/C [30]: 0.67%
viability, T/C [31]: 0.04%
viability, T/C [32]: 0.07%
viability, T/C [33]: 0.09%
viability, T/C [34]: 0.07%
viability, T/C [35]: 0.92%
viability, T/C [36]: 0.6%

O=c1[nH]cc(F)c(=O)[nH]1 + Cc1cnc(CNC(=O)c2c(=O)c3ccc(N4CCCN(C)CC4)nc3n3c2sc2ccccc23)cn1
IC50 (second compound 0.0316 µM): 152 nM
IC50 (second compound 0.1 µM): < 31.6 nM
IC50 (second compound 0.316 µM): < 31.6 nM
IC50 (second compound 1 µM): < 31.6 nM
IC50 (second compound 3.16 µM): < 31.6 nM
IC50 (second compound 10 µM): < 31.6 nM
viability, T/C [1]: 110%
viability, T/C [2]: 70.7%
viability, T/C [3]: 13.4%
viability, T/C [4]: 6.62%
viability, T/C [5]: 6.16%
viability, T/C [6]: 7.17%
viability, T/C [7]: 35.3%
viability, T/C [8]: 38.2%
viability, T/C [9]: 16.7%
viability, T/C [10]: 9.09%
viability, T/C [11]: 8.85%
viability, T/C [12]: 9.1%
viability, T/C [13]: 11%
viability, T/C [14]: 14.4%
viability, T/C [15]: 13.6%
viability, T/C [16]: 10.8%
viability, T/C [17]: 10.2%
viability, T/C [18]: 12.7%
viability, T/C [19]: 6.94%
viability, T/C [20]: 8.36%
viability, T/C [21]: 9.57%
viability, T/C [22]: 9.08%
viability, T/C [23]: 8.58%
viability, T/C [24]: 8.28%
viability, T/C [25]: 4.97%
viability, T/C [26]: 5.62%
viability, T/C [27]: 7.29%
viability, T/C [28]: 6.64%
viability, T/C [29]: 6.67%
viability, T/C [30]: 8.36%
viability, T/C [31]: 0.04%
viability, T/C [32]: 0.08%
viability, T/C [33]: 2.48%
viability, T/C [34]: 0.28%
viability, T/C [35]: 2.43%
viability, T/C [36]: 0.18%
